According to patent publication US4481203A, “Composition containing 1-(n-hexylcarbamoyl)-5-fluorouracil and uracil” (priority 1977, dated 1984):
Where two headings read alike, the source gives them in different places.

Key:
AH-130 [1] = assay: Effects of Preparations 1 to 8 on AH-130 (Table 4); type: in vivo, male Donryu rats
Excerpt: (§1) Ascites cells (5×10^6) of AH-130, are subcutaneously transplanted in the armpit of male Donryu rats weighing about 200 g (ten rats in each group). […] Twenty-four hours after the transplantation and during the following seven consecutive days the suspension is orally given to the animal once every day at the dose listed in Table 2. On the 10th day after the transplantation, the tumor is removed from the body and weighed to calculate the average weight (T) of the tumors in the group to which the composition has been given and the corresponding weight (C) in the control group to determine the ratio T/C.
(4) Compositions formulated according to Preparations 1 to 8 given above are tested by the foregoing method for effects on AH-130.

AH-130 [2] = assay: Anti-cancer effect (T/C) on subcutaneously transplanted AH-130, oral administration (Table 2); type: in vivo, male Donryu rats
Excerpt: (2) Determination of effects
as §1

[3] = background; cited from earlier work
in vivo [4] = assay: in vivo; parameters: species or system male rats of Donryu strain; conditions: rat, po, Concentration of 5-fluorouracil in blood
Excerpt: Ascites cells (5×10^6) of AH-130 are subcutaneously transplanted in the armpit portion of male rats of Donryu strain weighing about 200 g. Seven days thereafter, the rats with cancer cells weighing at least 2 g are used, five rats in each group.
Two, four and eight hours after the administration, the blood serum and cancer tissue homogenate are collected, each of which is acidified with hydrochloric acid and extracted with chloroform. The resulting aqueous layer is examined for antibiotic activity according to the thin-cup method (Media Circle, Vol. 92, p. 259, 1967) with use of Staphylococcus aureus 209P strain.

sarcoma 180 [5] = assay: Therapeutic effect on sarcoma 180 transplanted in mice (Table 5); type: in vivo, male mice of ICR strain; conditions: oral, 14400 min
Method: (§2) (5) The anti-cancer compositions of this invention are tested in mice by the following methods to determine acute toxicity, therapeutic effect and theapeutic index.
Tissues of sarcoma 180, 2×10^6, are subcutaneously transplanted in the back of male mice of ICR strain (6 mice in each group). […] Twenty-four hours after the transplantation and during the following seven consecutive days the suspension is orally given to the animal once every day.

in vivo [6] = type: in vivo; conditions: mouse, in vivo, po, mice
Method: as §2
(§3) Male mice of ICR strain weighing 22±1 g are used, 5 mice in each group. […] Over the following period of three weeks the mice are checked every day for poisoning, body weight and mortality. The LD50 is determined according to the up-and-down method 3 weeks after the administration.

mice = assay: in vivo; type: in vivo; conditions: oral, 30240 min
Method: as §2, §3

sarcoma 180 [7] = assay: Therapeutic index (LD50/ED50) in mice (Table 5); type: in vivo, male mice of ICR strain; conditions: oral
Excerpt: The LD50 and ED50 values obtained above are used to determine the therapeutic index (LD50 /ED50).

[8] = Rattus norvegicus, po, 240 h, read-out: Anti-cancer effect (T/C)
[9] = uracil (b)/(a) mol ratio 0, as amount of 5-fluorouracil (a)
[10] = uracil (b)/(a) mol ratio 2.5, as amount of 5-fluorouracil (a)
[11] = uracil (b)/(a) mol ratio 10, as amount of 5-fluorouracil (a)
[12] = Rattus norvegicus, po, 240 h; read-out: Anti-cancer effect (T/C)
[13] = oral, 5-fluorouracil (a) 0.5 m.mol/kg + uracil 0.1 m.mol/kg
[14] = oral, 5-fluorouracil (a) 0.5 m.mol/kg + uracil 0.2 m.mol/kg
[15] = oral, 5-fluorouracil (a) 0.5 m.mol/kg + uracil 0.5 m.mol/kg
[16] = oral, 5-fluorouracil (a) 0.5 m.mol/kg + uracil 1 m.mol/kg

Compound	ED50 (sarcoma 180 [5]; [9])	ED50 (sarcoma 180 [5]; [10])	ED50 (sarcoma 180 [5]; [11])	LD50 at 504 h (in vivo [6]; [11])	response vs control in vivo at 500 µmol/kg (AH-130 [2]; [12])	Anti-cancer effect (T/C) (AH-130 [2]; [14])	Anti-cancer effect (T/C) (AH-130 [2]; [15])	Anti-cancer effect (T/C) (AH-130 [2]; [16])	Therapeutic index (LD50/ED50) (sarcoma 180 [7]; uracil (b)/(a) mol ratio 0)	Therapeutic index (LD50/ED50) (sarcoma 180 [7]; uracil (b)/(a) mol ratio 2.5)	Therapeutic index (LD50/ED50) (sarcoma 180 [7]; uracil (b)/(a) mol ratio 10)	LD50 at 504 h (in vivo [6]; [9])	LD50 at 504 h (in vivo [6]; [10])	further results
O=c1[nH]cc(F)c(=O)[nH]1 [Compound 1, 5-Fluorouracil]	18.5 mg/kg	8.5 mg/kg	6.0 mg/kg	97 mg/kg										Anti-cancer effect (control) (T/C) (AH-130 [1]; I.v., Compd. 1 10 mg/kg, formulated as Preparation 6 but no uracil): 0.66; response vs control in vivo at 80 µmol/kg (AH-130 [2]; [8]): 69%; Anti-cancer effect (T/C) (AH-130 [2]; oral, 5-fluorouracil (a) 0.08 m.mol/kg + uracil 0.08 m.mol/kg): 0.59; Anti-cancer effect (T/C) (AH-130 [2]; oral, 5-fluorouracil (a) 0.08 m.mol/kg + uracil 0.16 m.mol/kg): 0.32; toxicity and side effects [3]: high toxicity and marked side effects; concentration at 4 h (in vivo [4]): 20 ng/mL; LD50 (mice; [9]): 115 mg/kg; LD50 (mice; [10]): 115 mg/kg
O=c1[nH]c(=O)n(C2CCCO2)cc1F (stereo not shown) [Compound 2, 1-(2-Tetrahydrofuryl)-5-fluorouracil, reference compound]	140 mg/kg	20 mg/kg	11 mg/kg		65%	0.23	0.17	0.06						Anti-cancer effect (control) (T/C) (AH-130 [1]; I.v., Compd. 2 100 mg/kg, formulated as Preparation 7 but no uracil): 0.61; Anti-cancer effect (control) (T/C) (AH-130 [1]; oral, Compd. 2 100 mg/kg, formulated as Preparation 1 but no uracil): 0.68; Anti-cancer effect (control) (T/C) (AH-130 [1]; via anus, Compd. 2 100 mg/kg, formulated as Preparation 8 but no uracil): 0.51; Anti-cancer effect (T/C) (AH-130 [2]; oral, 5-fluorouracil (a) 0.5 m.mol/kg + uracil 0.05 m.mol/kg): 0.49; Anti-cancer effect (T/C) (AH-130 [2]; [13]): 0.30
O=c1c(F)cn(C2CCCO2)c(=O)n1C1CCCO1 (stereo not shown) [Compound 3, 1,3-bis(2-Tetrahydrofuryl)-5-fluorouracil]	118 mg/kg	63 mg/kg	27 mg/kg	1160 mg/kg	24%	0.18	0.12	0.08	18.8	30.1	42.9	2220 mg/kg	1890 mg/kg	Anti-cancer effect (control) (T/C) (AH-130 [1]; oral, Compd. 3 120 mg/kg, formulated as Preparation 2 but no uracil): 0.25; Anti-cancer effect (control) (T/C) (AH-130 [1]; oral, Compd. 3 120 mg/kg, formulated as Preparation 4 but no uracil): 0.25
CCCCCCNC(=O)n1cc(F)c(=O)[nH]c1=O [Compound 4, 1-(n-Hexylcarbamoyl)-5-fluorouracil]	60 mg/kg	24 mg/kg	20 mg/kg	644 mg/kg		0.21	0.15	0.12	21.0	40.8	32.2	1260 mg/kg	980 mg/kg	Anti-cancer effect (control) (T/C) (AH-130 [1]; oral, Compd. 4 50 mg/kg, formulated as Preparation 3 but no uracil): 0.45; response vs control in vivo at 500 µmol/kg (AH-130 [2]; [8]): 39%
CCOCn1cc(F)c(=O)[nH]c1=O [Compound 5, 1-Ethoxymethyl-5-fluorouracil]		26 mg/kg	13 mg/kg	191 mg/kg	68%	0.33	0.19	0.08				1000 mg/kg	446 mg/kg	Anti-cancer effect (control) (T/C) (AH-130 [1]; oral, Compd. 5 100 mg/kg, formulated as Preparation 5 but no uracil): 0.72
O=c1[nH]cc(F)c(=O)n1C1CCCO1 (stereo not shown) [Compound 7, 3-(2-Tetrahydrofuryl)-5-fluorouracil]	78 mg/kg	29 mg/kg	16 mg/kg	381 mg/kg	20%		0.06		13.1	23.7	23.8	1020 mg/kg	687 mg/kg	Anti-cancer effect (T/C) (AH-130 [2]; [13]): 0.12
O=c1[nH]c(=O)n(S(=O)(=O)c2ccccc2)cc1F [Compound 8, 1-Benzenesulfonyl-5-fluorouracil]	234 mg/kg	88 mg/kg	48 mg/kg	427 mg/kg	48%		0.21					1170 mg/kg	973 mg/kg	Anti-cancer effect (T/C) (AH-130 [2]; [13]): 0.39
CCOC(=O)n1cc(F)c(=O)[nH]c1=O [Compound 9, 1-Ethoxycarbonyl-5-fluorouracil]	101 mg/kg	39 mg/kg	28 mg/kg	179 mg/kg			0.06		3.3	6.9	6.4	332 mg/kg	269 mg/kg	response vs control in vivo at 500 µmol/kg (AH-130 [2]; [8]): 22%
CCCC(=O)n1cc(F)c(=O)[nH]c1=O [Compound 10, 1-(n-Butyryl)-5-fluorouracil]	111 mg/kg	37 mg/kg	28 mg/kg		38%		0.11							
CCCCn1cc(F)c(=O)[nH]c1=O [Compound 11, 1-(n-Butyl)-5-fluorouracil]	186 mg/kg	88 mg/kg	49 mg/kg	358 mg/kg	77%		0.53		4.7	8.2	7.3	867 mg/kg	723 mg/kg	
Fc1cnc(OCc2ccccc2)nc1OCc1ccccc1 [Compound 12, 2,4-Dibenzyl-5-fluorouracil]	362 mg/kg	224 mg/kg	163 mg/kg		55%		0.41							
O=c1cc[nH]c(=O)[nH]1 [uracil (b), uracil]														effect (T/C) (AH-130 [2]; oral, uracil (b) alone 1 m.mol/kg): 0.96; anti-cancer effect of uracil itself (AH-130 [2]; uracil (b) itself): no anti-cancer effect whatever
